Tested on: cultured cancer cell types (including MDA-MB-231, PC-3, A375 and SK-OV-3 among others)
Assay: activity against cultured cancer cells in combination with DFMO
Assay type: cell-based
Text: Cancer cells can circumvent the ability of drugs such as α-difluoromethylornithine (DFMO) based on inhibition of polyamine biosynthesis, from completely depleting their internal polyamines by the importation of these molecules from external sources. […] The resulting novel two-drug combination therapy targeting cellular polyamine metabolism has shown exceptional efficacy against cutaneous squamous cell carcinomas (SCCs) in a transgenic ornithine decarboxylase (ODC) mouse model developed by us for the study of skin cancer. […] The availability of a potent polyamine transport inhibitor allows, for the first time, for a real test of the hypothesis that starving cells of polyamines will lead to objective clinical response. This therapy is molecularly-targeted, relatively nontoxic at the proposed dose, and consists of both a very well-characterized drug and a member of a novel chemical class.

CCCCCCCCCCCCCCCC(=O)NCCCC[C@@H](N)C(=O)NCCCNCCCCNCCCN [AMXT 1501, D-Lys(C16acyl)-Spm]
nature of cell culture effects: cytostatic and not cytotoxic | potency compared with AMXT 1426 (in combination with DFMO): several orders of magnitude higher potency
